Measured values taken from US9346761B2, “Arginine methyltransferase inhibitors and uses thereof” (Epizyme, Inc., priority 2013, dated 2016).
Like-named read-outs stand apart in the source and are kept apart here.

Columns and labels:
Full-length human PRMT8 = biological target: T1, Full-length human PRMT8 (Homo sapiens, UniProt Q9NR22); assay: PRMT8 biochemical assay (3H-SAM Flashplate, peptide substrate)
T1 construct: Full-length human PRMT8 (NM_019854.4) isoform 1 transcript clone; made in house
From the text: General Materials. S-adenosylmethionine (SAM), S-adenosylhomocysteine (SAH), bicine, Tween20, dimethylsulfoxide (DMSO), bovine skin gelatin (BSG), isopropyl-β-D-thiogalactopyranoside (IPTG), and Tris(2-carboxyethyl)phosphine hydrochloride solution (TCEP) were purchased from Sigma-Aldrich at the highest level of purity possible. ^3H-SAM was purchase from American Radiolabeled Chemicals with a specific activity of 80 Ci/mmol. 384-well streptavidin Flashplates were purchased from PerkinElmer.
Substrates. Peptide representative of human histone H4 residues 31-45 was synthesized with an N-terminal linker-affinity tag motif and a C-terminal amide cap by 21st Century Biochemicals.
Protein Expression. E. coli (BL21(DE3) Gold, Stratagene) made competent by the CaCl2 method were transformed with the PRMT8 construct and ampicillin selection. Protein over-expression was accomplished by growing the PRMT8 expressing E. coli clone and inducing expression with 0.3 mM IPTG at 16° C. The culture was grown for 12 hours, harvested by centrifugation, and stored at −80° C. for purification.
Protein Purification. […] GST-tagged PRMT8 was eluted with 50 mM Tris, 2 mM glutathione, pH 7.8. Pooled fractions were cleaved by thrombin (10 U) and dialysed in buffer A. GST was removed by reloading the cleaved protein sample onto glutathione sepharose column and PRMT8 was collected in the flow-through fractions. PRMT8 was purified further by ceramic hydroxyapatite chromatography. The column was washed with 50 mM phosphate buffer, 100 mM NaCl, 5% glycerol, 5 mM β-mercaptoethanol, pH 7.8 and PRMT8 was eluted by 100 mM phosphate in the same buffer. Protein was concentrated and buffer was exchanged to 50 mM Tris, 300 mM NaCl, 10% glycerol, 5 mM β-mercaptoethanol, pH 7.8 by ultrafiltration.
General Procedure for PRMT8 Enzyme Assays on Peptide Substrates. The assays were all performed in a buffer consisting of 20 mM Bicine (pH=7.6), 1 mM TCEP, 0.005% BSG, and 0.002% Tween 20, prepared on the day of use. […] DMSO (1 ul) was added to Columns 11, 12, 23, 24, rows A-H for the maximum signal control and 1 ul of SAH, a known product and inhibitor of PRMT8, was added to columns 11, 12, 23, 24, rows I-P for the minimum signal control. A cocktail (40 ul) containing the PRMT8 enzyme was added by Multidrop Combi (Thermo-Fisher). The compounds were allowed to incubate with PRMT8 for 30 min at room temperature, then a cocktail (10 ul) containing ^3H-SAM and peptide was added to initiate the reaction (final volume=51 ul). […] The assays were stopped by the addition of non-radiolabeled SAM (10 ul) to a final concentration of 400 uM, which dilutes the ^3H-SAM to a level where its incorporation into the peptide substrate is no longer detectable. 50 ul of the reaction in the 384-well polypropylene plate was then transferred to a 384-well Flashplate and the biotinylated peptides were allowed to bind to the streptavidin surface for at least 1 hour before being washed once with 0.1% Tween20 in a Biotek ELx405 plate washer. The plates were then read in a PerkinElmer TopCount plate reader to measure the quantity of ^3H-labeled peptide bound to the Flashplate surface, measured as disintegrations per minute (dpm) or alternatively, referred to as counts per minute (cpm).
Where dpm=disintegrations per minute, cmpd=signal in assay well, and min and max are the respective minimum and maximum signal controls.
Where top and bottom are the normally allowed to float, but may be fixed at 100 or 0 respectively in a 3-parameter fit. The Hill Coefficient normally allowed to float but may also be fixed at 1 in a 3-parameter fit. Y is the % inhibition and X is the compound concentration.

[1] = tested on: mono-methyl arginine in RKO cells; assay: RKO methylation assay, In Cell Western for mono-methyl arginine and DNA content; assay type: cell-based; settings: Homo sapiens
[2] = In Cell Western, RKO cells, 72 hours, percent activation of mono-methyl arginine signal, read-out: EC30

T1 sequence (Q9NR22 whole entry, canonical isoform): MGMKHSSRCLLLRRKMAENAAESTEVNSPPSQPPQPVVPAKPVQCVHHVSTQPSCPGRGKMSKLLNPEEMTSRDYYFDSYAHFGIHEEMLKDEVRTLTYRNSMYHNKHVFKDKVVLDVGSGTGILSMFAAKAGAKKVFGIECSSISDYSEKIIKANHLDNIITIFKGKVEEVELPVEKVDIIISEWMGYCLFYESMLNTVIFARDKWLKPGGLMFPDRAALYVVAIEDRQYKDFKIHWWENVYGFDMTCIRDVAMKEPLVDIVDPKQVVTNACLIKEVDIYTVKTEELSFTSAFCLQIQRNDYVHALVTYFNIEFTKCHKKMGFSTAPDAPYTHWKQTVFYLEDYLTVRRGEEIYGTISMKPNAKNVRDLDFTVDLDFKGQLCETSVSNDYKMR

Compound | IC50 (Full-length human PRMT8) [µM] | EC30 [1, 2] [µM] | EC30 ([1]; RKO, 72 h) [µM]
COCCn1cc(CN(C)CCN)c(-c2ccc(F)cc2)n1 [Compound 5] | 3.01 to 10 | > 12 | 
COCCn1ncc(CN(C)CCN)c1-c1ccc(F)cc1 [Compound 6] |  | > 12 | 
CCn1ncc(CN(C)CCNC)c1-c1ccc(F)cc1 [Compound 7] | 3.01 to 10 | 3.01 to 12 | 
CCn1cc(CN(C)CCNC)c(-c2ccc(F)cc2)n1 [Compound 8] | 3.01 to 10 | > 12 | 
CN(CCN)Cc1c[nH]nc1-c1ccc(Cl)cc1 [Compound 95] | 0.101 to 1 | < 3 | 
CN(CCN)Cc1c[nH]nc1-c1ccc(OCC(F)(F)F)cc1 [Compound 96] | 0.101 to 1 | < 3 | 
CC(C)Oc1ccc(-c2n[nH]cc2CN(C)CCN)cc1F [Compound 97] | < 0.1 |  | < 3
CN(CCN)Cc1c[nH]nc1-c1ccc(C2CCOCC2)cc1 [Compound 98] | 0.101 to 1 | < 3 | 
CN(CCN)Cc1c[nH]nc1-c1ccc(F)cc1F [Compound 99] | 1.01 to 3 | 3.01 to 12 | 
CN(CCN)Cc1n[nH]cc1-c1ccc(C#N)cc1 [Compound 100] | 0.101 to 1 | < 3 | 
CC(C)c1ccc(-c2c[nH]nc2CN(C)CCN)cc1 [Compound 101] | 0.101 to 1 |  | 3.01 to 12
CN(CCN)Cc1n[nH]cc1-c1ccc(Cl)cc1 [Compound 102] | 0.101 to 1 | < 3 | 
CN(CCN)Cc1n[nH]cc1-c1ccc(C(F)(F)F)cc1 [Compound 103] | 0.101 to 1 | 3.01 to 12 | 
CN(CCN)Cc1n[nH]cc1-c1ccc(C2CC2)cc1 [Compound 104] | 0.101 to 1 | 3.01 to 12 | 
CN(CCN)Cc1n[nH]cc1-c1ccc(OC(F)(F)F)cc1 [Compound 105] | 0.101 to 1 | < 3 | 
CN(CCN)Cc1c[nH]nc1-c1cc(F)ccc1Cl [Compound 106] | 3.01 to 10 | > 12 | 
COc1ccc(-c2n[nH]cc2CN(C)CCN)c(F)c1 [Compound 107] | 0.101 to 1 | > 12 | 
Cc1ccc(-c2n[nH]cc2CN(C)CCN)c(F)c1 [Compound 108] | 1.01 to 3 | > 12 | 
COc1ccccc1-c1n[nH]cc1CN(C)CCN [Compound 109] | 1.01 to 3 | > 12 | 
Cc1cc(C#N)ccc1-c1n[nH]cc1CN(C)CCN [Compound 110] | 0.101 to 1 | > 12 | 

Compound | IC50 (Full-length human PRMT8) [µM] | EC30 [1, 2] [µM] | EC30 ([1]; RKO, 72 h) [µM]
CN(CCN)Cc1c[nH]nc1-c1cc(F)cc(F)c1 [Compound 111] | 0.101 to 1 | > 12 | 
CC(=O)c1cccc(-c2n[nH]cc2CN(C)CCN)c1 [Compound 112] | 0.101 to 1 | > 12 | 
CN(CCN)Cc1cnn(CC(O)CO)c1-c1ccc(F)cc1 (centres unmarked) [Compound 113] | 3.01 to 10 | > 12 | 
CN(CCN)Cc1c[nH]nc1-c1ccc(OC2CC2)cc1 [Compound 114] | < 0.1 | < 3 | 
CC(O)c1ccc(-c2n[nH]cc2CN(C)CCN)cc1 (centres unmarked) [Compound 115] | 1.01 to 3 | > 12 | 
CN(CCN)Cc1c[nH]nc1-c1ccc(C2CC2)cc1 [Compound 116] | 0.101 to 1 | < 3 | 
CN(CCN)Cc1c[nH]nc1-c1ccc(C(F)(F)F)c(Cl)c1 [Compound 117] | < 0.1 | < 3 | 
CN(CCN)Cc1c[nH]nc1-c1ccc(Cl)c(F)c1 [Compound 118] | 0.101 to 1 | < 3 | 
CN(CCN)Cc1n[nH]cc1-c1ccc(OC2CC2)cc1 [Compound 119] | 0.101 to 1 | 3.01 to 12 | 
CN(CCN)Cc1c[nH]nc1-c1cc(F)cc(Cl)c1 [Compound 121] | 0.101 to 1 | < 3 | 
CN(CCN)Cc1c[nH]nc1-c1cccc(Cl)c1 [Compound 122] | 0.101 to 1 | 3.01 to 12 | 
CN(CCN)Cc1c[nH]nc1-c1cccc(Cl)c1F [Compound 123] | 0.101 to 1 | < 3 | 
CN(CCN)Cc1c[nH]nc1-c1ccc(F)c(Cl)c1 [Compound 124] | 0.101 to 1 | < 3 | 
COc1ccc(-c2n[nH]cc2CN(C)CCN)cc1Cl [Compound 125] | 0.101 to 1 |  | < 3
Cc1ccc(-c2n[nH]cc2CN(C)CCN)cc1Cl [Compound 126] | 0.101 to 1 | < 3 | 
COc1cc(Cl)cc(-c2n[nH]cc2CN(C)CCN)c1 [Compound 127] | 0.101 to 1 | 3.01 to 12 | 
CN(CCN)Cc1cn(CC2CCOCC2)nc1-c1ccc(F)cc1 [Compound 128] | > 10 | > 12 | 
Cc1c(F)cccc1-c1n[nH]cc1CN(C)CCN [Compound 129] | 0.101 to 1 | 3.01 to 12 | 
COc1cccc(-c2n[nH]cc2CN(C)CCN)c1 [Compound 130] | 0.101 to 1 | 3.01 to 12 | 
Cc1cccc(-c2n[nH]cc2CN(C)CCN)c1 [Compound 131] | 0.101 to 1 | < 3 | 

Compound | IC50 (Full-length human PRMT8) [µM] | EC30 [1, 2] [µM] | EC30 ([1]; RKO, 72 h) [µM]
CN(CCN)Cc1c[nH]nc1-c1ccc(Cl)cc1F [Compound 132] | 0.101 to 1 |  | < 3
Cc1cc(Cl)ccc1-c1n[nH]cc1CN(C)CCN [Compound 133] | 0.101 to 1 | < 3 | 
COc1ccc(-c2n[nH]cc2CN(C)CCN)cc1F [Compound 134] | 0.101 to 1 | < 3 | 
CN(CCN)Cc1c[nH]nc1-c1ccc(C(F)(F)F)cc1Cl [Compound 135] | 1.01 to 3 | 3.01 to 12 | 
CCNC(=O)c1ccc(-c2n[nH]cc2CN(C)CCN)cc1 [Compound 136] | 0.101 to 1 | > 12 | 
CN(CCN)Cc1c[nH]nc1-c1cc(Cl)cc(Cl)c1 [Compound 137] | 0.101 to 1 | 3.01 to 12 | 
CN(CCN)Cc1n[nH]cc1-c1ccc(OC(F)F)cc1 [Compound 138] | 0.101 to 1 | < 3 | 
CN(CCN1CCCC1)Cc1c[nH]nc1-c1ccc(C#N)cc1 [Compound 139] | > 10 | > 12 | 
CN(CCN)Cc1c[nH]nc1-c1ccccc1C#N [Compound 140] | 3.01 to 10 | > 12 | 
CN(CCN)Cc1c[nH]nc1-c1ccc(C(F)(F)F)c(F)c1 [Compound 141] | 0.101 to 1 | < 3 | 
COc1cc(-c2n[nH]cc2CN(C)CCN)ccc1F [Compound 142] | 0.101 to 1 | < 3 | 
CCN(CC)C(=O)c1ccc(-c2n[nH]cc2CN(C)CCN)cc1 [Compound 143] | 1.01 to 3 | > 12 | 
CC(C)Oc1ccc(-c2c[nH]nc2CN(C)CCN)cc1F [Compound 144] | 0.101 to 1 | < 3 | 
CN(CCN)Cc1n[nH]cc1-c1ccc(C2CCOCC2)cc1 [Compound 145] | 0.101 to 1 | < 3 | 
COc1ccc(-c2n[nH]cc2CN(C)CCN)c(Cl)c1 [Compound 146] | 1.01 to 3 | 3.01 to 12 | 
CN(CCN)Cc1c[nH]nc1-c1cc(C#N)ccc1Cl [Compound 147] | > 10 | > 12 | 
CN(CCN)Cc1c[nH]nc1-c1ccc(C(F)(F)F)cc1F [Compound 148] | 0.101 to 1 | 3.01 to 12 | 
CN(CCN)Cc1c[nH]nc1-c1cccc(N(C)C)c1 [Compound 149] | 0.101 to 1 | 3.01 to 12 | 
CCOC(=O)c1cccc(-c2n[nH]cc2CN(C)CCN)c1 [Compound 150] | 0.101 to 1 | 3.01 to 12 | 
COc1cc(F)ccc1-c1n[nH]cc1CN(C)CCN [Compound 151] | 1.01 to 3 | 3.01 to 12 | 
